Each structure is given as a SMILES string.

In this assay the test system is CHIKV 181/clone25. The experiment in a line: CHIKV cytopathic effect (CPE) protection assay in Vero cells. The following applies: Chikungunya virus; CHIKV 181/clone25, Vero cells, MOI=0.01, 48 hrs, protection from CPE (crystal violet, absorbance 595nm). In kind it is cell-based.
`CCN1C(=O)C(CC(=O)NCc2ccncc2)Sc2ncccc21` (stereo not drawn) [Example 42, 2-(1-ethyl-2-oxo-2,3-dihydro-1H-pyrido[2,3-b][1,4]thiazin-3-yl)-N-(pyridin-4-ylmethyl)acetamide]: the EC50 was more than 100 µM.

`CCN1C(=O)C(CC(=O)NCc2ccccc2)Sc2ncccc21` (stereo not drawn) [Example 43, N-benzyl-2-(1-ethyl-2-oxo-2,3-dihydro-1H-pyrido[2,3-b][1,4]thiazin-3-yl)acetamide]: the EC50 was more than 100 µM.

`CCN1C(=O)C(CC(=O)NCC2CCCCC2)Sc2ncccc21` (stereo not drawn) [Example 44, N-(cyclohexylmethyl)-2-(1-ethyl-2-oxo-2,3-dihydro-1H-pyrido[2,3-b][1,4]thiazin-3-yl)acetamide] returned an EC50 of 10 to 49.9 µM.

The molecule `CCN1C(=O)C(CC(=O)N2CCCCCC2)Sc2ncccc21` (stereo not drawn) [Example 45, 3-(2-(azepan-1-yl)-2-oxoethyl)-1-ethyl-1H-pyrido[2,3-b][1,4]thiazin-2(3H)-one] returned an EC50 of more than 100 µM.

In turn, `CCN1C(=O)C(CC(=O)NCC2CC2)Sc2ncccc21` (stereo not drawn) [Example 46, N-(cyclopropylmethyl)-2-(1-ethyl-2-oxo-2,3-dihydro-1H-pyrido[2,3-b][1,4]thiazin-3-yl)acetamide] returned an EC50 of more than 100 µM.

The molecule `O=C(CC1Sc2ncccc2NC1=O)NCC1CCSCC1` (stereo not drawn) [Example 47, 2-(2-oxo-2,3-dihydro-1H-pyrido[2,3-b][1,4]thiazin-3-yl)-N-((tetrahydro-2H-thiopyran-4-yl)methyl)acetamide] displayed an EC50 of 10 to 49.9 µM.

`O=C(CC1Sc2ncccc2NC1=O)NCC1CCOCC1` (stereo not drawn) [Example 48, 2-(2-oxo-2,3-dihydro-1H-pyrido[2,3-b][1,4]thiazin-3-yl)-N-((tetrahydro-2H-pyran-4-yl)methyl)acetamide] had an EC50 of more than 100 µM.

`O=C(CC1Sc2ncccc2NC1=O)NCc1ccc(Cl)c(Cl)c1` (stereo not drawn) [Example 49, N-(3,4-dichlorobenzyl)-2-(2-oxo-2,3-dihydro-1H-pyrido[2,3-b][1,4]thiazin-3-yl)acetamide] registered an EC50 of more than 100 µM.

Molecule `O=C(CC1Sc2ncccc2NC1=O)NCc1ccc(F)c(F)c1` (stereo not drawn) [Example 50, N-(3,4-difluorobenzyl)-2-(2-oxo-2,3-dihydro-1H-pyrido[2,3-b][1,4]thiazin-3-yl)acetamide] came in with an EC50 of 10 to 49.9 µM.

Take `O=C(CC1Sc2ncccc2NC1=O)NCc1cc(F)c(F)c(F)c1` (stereo not drawn) [Example 51, 2-(2-oxo-2,3-dihydro-1H-pyrido[2,3-b][1,4]thiazin-3-yl)-N-(3,4,5-trifluorobenzyl)acetamide]: the EC50 was 50 to 99.9 µM.

In turn, `O=C(CC1Sc2ncccc2NC1=O)NCc1cc(F)cc(F)c1` (stereo not drawn) [Example 52, N-(3,5-difluorobenzyl)-2-(2-oxo-2,3-dihydro-1H-pyrido[2,3-b][1,4]thiazin-3-yl)acetamide] displayed an EC50 of more than 100 µM.

On to `O=C(CC1Sc2ncccc2NC1=O)NCc1ccc(Cl)cc1` (stereo not drawn) [Example 53, N-(4-chlorobenzyl)-2-(2-oxo-2,3-dihydro-1H-pyrido[2,3-b][1,4]thiazin-3-yl)acetamide], for which the EC50 fell in the range of 10 to 49.9 µM.

The molecule `O=C(CC1Sc2ncccc2NC1=O)NCc1cccc(Cl)c1` (stereo not drawn) [Example 54, N-(3-chlorobenzyl)-2-(2-oxo-2,3-dihydro-1H-pyrido[2,3-b][1,4]thiazin-3-yl)acetamide] had an EC50 of more than 100 µM.

In the case of `O=C(CC1Sc2ncccc2NC1=O)NCc1cccc(F)c1` (stereo not drawn) [Example 55, N-(3-fluorobenzyl)-2-(2-oxo-2,3-dihydro-1H-pyrido[2,3-b][1,4]thiazin-3-yl)acetamide], the EC50 was more than 100 µM.

Turning to `O=C(CC1Sc2ncccc2NC1=O)NCc1ccc(F)cc1` (stereo not drawn) [Example 56, N-(4-fluorobenzyl)-2-(2-oxo-2,3-dihydro-1H-pyrido[2,3-b][1,4]thiazin-3-yl)acetamide], the EC50 was less than 10 µM.

Turning to `O=C(CC1Sc2ncccc2NC1=O)NCCc1ccc(F)cc1` (stereo not drawn) [Example 57, N-(4-fluorophenethyl)-2-(2-oxo-2,3-dihydro-1H-pyrido[2,3-b][1,4]thiazin-3-yl)acetamide], the concentration giving a half-maximal response (EC50) was in the range of 10 to 49.9 µM.

For `O=C(CC1Sc2ncccc2NC1=O)NCCC1CCCCC1` (stereo not drawn) [Example 58, N-(2-cyclohexylethyl)-2-(2-oxo-2,3-dihydro-1H-pyrido[2,3-b][1,4]thiazin-3-yl)acetamide], the EC50 lay in the range of 10 to 49.9 µM.

For the molecule `O=C(CC1Sc2ccccc2NC1=O)NCC1CCCCC1` (stereo not drawn) [Example 59, N-(cyclohexylmethyl)-2-(3-oxo-3,4-dihydro-2H-benzo[b][1,4]thiazin-2-yl)acetamide], the EC50 is more than 100 µM.

On to `O=C(CC1Sc2ncccc2NC1=O)NCC1CCC(F)(F)CC1` (stereo not drawn) [Example 60, N-((4,4-difluorocyclohexyl)methyl)-2-(2-oxo-2,3-dihydro-1H-pyrido[2,3-b][1,4]thiazin-3-yl)acetamide], for which the EC50 was 10 to 49.9 µM.

On to `CCC(CC)CNC(=O)CC1Sc2ncccc2NC1=O` (stereo not drawn) [Example 61, N-(2-ethylbutyl)-2-(2-oxo-2,3-dihydro-1H-pyrido[2,3-b][1,4]thiazin-3-yl)acetamide], for which the concentration giving a half-maximal response (EC50) was in the range of 10 to 49.9 µM.

As to `O=C(CC1Sc2ncccc2NC1=O)NCC1CCCCCC1` (stereo not drawn) [Example 62, N-(cycloheptylmethyl)-2-(2-oxo-2,3-dihydro-1H-pyrido[2,3-b][1,4]thiazin-3-yl)acetamide], the EC50 fell in the range of 10 to 49.9 µM.

Turning to `O=C(CC1Sc2ncccc2NC1=O)NCC1CCCC1` (stereo not drawn) [Example 63, N-(cyclopentylmethyl)-2-(2-oxo-2,3-dihydro-1H-pyrido[2,3-b][1,4]thiazin-3-yl)acetamide], the EC50 was less than 10 µM.

`CC(C)(C)CCNC(=O)CC1Sc2ncccc2NC1=O` (stereo not drawn) [Example 64, N-(3,3-dimethylbutyl)-2-(2-oxo-2,3-dihydro-1H-pyrido[2,3-b][1,4]thiazin-3-yl)acetamide]: the EC50 is more than 100 µM.

The molecule `O=C(CC1Nc2ncccc2NC1=O)NCC1CCCCC1` (stereo not drawn) [Example 65, N-(cyclohexylmethyl)-2-(2-oxo-1,2,3,4-tetrahydropyrido[2,3-b]pyrazin-3-yl)acetamide] showed an EC50 of more than 100 µM.

As to `CC1(CNC(=O)CC2Sc3ncccc3NC2=O)CCCCC1` (stereo not drawn) [Example 66, N-((1-methylcyclohexyl)methyl)-2-(2-oxo-2,3-dihydro-1H-pyrido[2,3-b][1,4]thiazin-3-yl)acetamide], the concentration giving a half-maximal response (EC50) was less than 10 µM.

In the case of `CC(C)CCCNC(=O)CC1Sc2ncccc2NC1=O` (stereo not drawn) [Example 67, N-(4-methylpentyl)-2-(2-oxo-2,3-dihydro-1H-pyrido[2,3-b][1,4]thiazin-3-yl)acetamide], the EC50 lay within 10 to 49.9 µM.

`CC(C)(C)CCCNC(=O)CC1Sc2ncccc2NC1=O` (stereo not drawn) [Example 68, N-(4,4-dimethylpentyl)-2-(2-oxo-2,3-dihydro-1H-pyrido[2,3-b][1,4]thiazin-3-yl)acetamide] displayed an EC50 of 10 to 49.9 µM.

On to `CC1(C)CCC(CNC(=O)CC2Sc3ncccc3NC2=O)CC1` (stereo not drawn) [Example 69, N-((4,4-dimethylcyclohexyl)methyl)-2-(2-oxo-2,3-dihydro-1H-pyrido[2,3-b][1,4]thiazin-3-yl)acetamide], for which the EC50 lay in the range of 10 to 49.9 µM.

`CCCCNC(=O)CC1Sc2ncccc2NC1=O` (stereo not drawn) [Example 70, N-butyl-2-(2-oxo-2,3-dihydro-1H-pyrido[2,3-b][1,4]thiazin-3-yl)acetamide] returned an EC50 of 50 to 99.9 µM.

With `CCCCCNC(=O)CC1Sc2ncccc2NC1=O` (stereo not drawn) [Example 71, 2-(2-oxo-2,3-dihydro-1H-pyrido[2,3-b][1,4]thiazin-3-yl)-N-pentylacetamide], the EC50 fell in the range of 10 to 49.9 µM.

As usually defined, the EC50 is the concentration giving half of the maximal effect.
